Results as given in patent US9290457B2, “Substituted dihydropyrimidinones and their use as inhibitors of neutrophil elastase activity” (Boehringer Ingelheim International GmbH, priority 2014, dated 2016).

Target: neutrophil elastase (Homo sapiens (Human), UniProt P08246)
Experiment: Human Neutrophil Elastase Assay
Type: biochemical
Details: substrate MeOSuc-Ala-Ala-Pro-Val-AMC
Method: Human Neutrophil Elastase Assay
All other materials were of the highest grade commercially available.
The following buffers were used: Compound buffer: 100 mM Tris, 500 mM NaCl, adjusted to pH 7.5; Assay buffer: 100 mM Tris, 500 mM NaCl, adjusted to pH 7.5, containing 0.01% BSA.
Assay conditions: Test compounds were prediluted in DMSO and subsequently in compound buffer (5% DMSO final). […] After inactivation of the enzyme, fluorescence intensities were measured at 380 nm excitation and 460 nm emission wavelengths.
Each plate contains wells with a high value control (DMSO+enzyme+substrate) and wells with a low value control (DMSO+inactivated enzyme+substrate). IC50 values were estimated using a sigmoidal concentration response curve with variable slope. Means of low values were taken as 0%, means of high values as 100%.

neutrophil elastase, sequence (P08246 30-247): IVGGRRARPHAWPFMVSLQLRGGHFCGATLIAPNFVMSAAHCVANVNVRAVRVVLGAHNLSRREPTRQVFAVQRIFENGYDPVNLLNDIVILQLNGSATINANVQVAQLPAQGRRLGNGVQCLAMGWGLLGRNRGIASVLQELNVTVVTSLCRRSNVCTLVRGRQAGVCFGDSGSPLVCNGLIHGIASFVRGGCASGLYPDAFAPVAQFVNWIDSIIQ

Compound	IC50 [nM]
CC(=O)C1=C(C)N(c2cccc(C(F)(F)F)c2)C(=O)N(C)C1c1ccc(C#N)cc1C(=O)N1CCOCC1 (stereo not shown) [Example 1.3]	2.25
CC(=O)C1=C(C)N(c2cccc(C(F)(F)F)c2)C(=O)N(C)C1c1ccc(C#N)cc1C(=O)NC12CC(C1)C2 (stereo not shown) [Example 1.18]	1
CC(=O)C1=C(C)N(c2cccc(C(F)(F)F)c2)C(=O)N(C)C1c1ccc(C#N)cc1C(=O)NC1CCC(O)C1 (stereo not shown) [Example 1.25]	1.1
CC(=O)C1=C(C)N(c2cccc(C(F)(F)F)c2)C(=O)N(C)C1c1ccc(C#N)cc1C(=O)N1CCC(O)CC1 (stereo not shown) [Example 1.26]	4.7
CC(=O)C1=C(C)N(c2cccc(C(F)(F)F)c2)C(=O)N(C)C1c1ccc(C#N)cc1C(=O)NC(C)(C)C#N (stereo not shown) [Example 1.33]	1.8
CC(=O)C1=C(C)N(c2cccc(C(F)(F)F)c2)C(=O)N(C)C1c1ccc(C#N)cc1C(=O)NCc1cn[nH]c1 (stereo not shown) [Example 1.36]	< 1
CC(=O)C1=C(C)N(c2cccc(C(F)(F)F)c2)C(=O)N(C)C1c1ccc(C#N)cc1C(=O)NCc1ncco1 (stereo not shown) [Example 1.37]	< 1
CC(=O)C1=C(C)N(c2cccc(C(F)(F)F)c2)C(=O)N(C)C1c1ccc(C#N)cc1C(=O)NCc1ccno1 (stereo not shown) [Example 1.38]	< 1
CC(=O)C1=C(C)N(c2cccc(C(F)(F)F)c2)C(=O)N(C)C1c1ccc(C#N)cc1C(=O)NCc1cnoc1 (stereo not shown) [Example 1.39]	< 1
CC(=O)C1=C(C)N(c2cccc(C(F)(F)F)c2)C(=O)N(C)C1c1ccc(C#N)cc1C(=O)NCc1cnco1 (stereo not shown) [Example 1.40]	< 1
CC(=O)C1=C(C)N(c2cccc(C(F)(F)F)c2)C(=O)N(C)C1c1ccc(C#N)cc1C(=O)NCc1ccon1 (stereo not shown) [Example 1.41]	< 1
CC(=O)C1=C(C)N(c2cccc(C(F)(F)F)c2)C(=O)N(C)C1c1ccc(C#N)cc1C(=O)NCc1cocn1 (stereo not shown) [Example 1.42]	< 1
CC(=O)C1=C(C)N(c2cccc(C(F)(F)F)c2)C(=O)N(C)C1c1ccc(C#N)cc1C(=O)NC1CCN(C)C1 (stereo not shown) [Example 1.43]	< 1
CC(=O)C1=C(C)N(c2cccc(C(F)(F)F)c2)C(=O)N(C)C1c1ccc(C#N)cc1C(=O)N(C)CCN(C)C (stereo not shown) [Example 1.44]	< 1
CC(=O)C1=C(C)N(c2cccc(C(F)(F)F)c2)C(=O)N(C)C1c1ccc(C#N)cc1C(=O)NCc1ccccc1 (stereo not shown) [Example 1.45]	1
CC(=O)C1=C(C)N(c2cccc(C(F)(F)F)c2)C(=O)N(C)C1c1ccc(C#N)cc1C(=O)NCc1ccccn1 (stereo not shown) [Example 1.46]	< 1
CC(=O)C1=C(C)N(c2cccc(C(F)(F)F)c2)C(=O)N(C)C1c1ccc(C#N)cc1C(=O)NCc1cccnc1 (stereo not shown) [Example 1.48]	< 1
CC(=O)C1=C(C)N(c2cccc(C(F)(F)F)c2)C(=O)N(C)C1c1ccc(C#N)cc1C(=O)NCc1ccnnc1 (stereo not shown) [Example 1.49]	< 1
CC(=O)C1=C(C)N(c2cccc(C(F)(F)F)c2)C(=O)N(C)C1c1ccc(C#N)cc1C(=O)NCc1cccnn1 (stereo not shown) [Example 1.50]	< 1

Other lines, results leading:

IC50 [nM]	Compound
< 1	CC(=O)C1=C(C)N(c2cccc(C(F)(F)F)c2)C(=O)N(C)C1c1ccc(C#N)cc1C(N)=O (stereo not shown) [Example 1, 2-[5-Acetyl-3,6-dimethyl-2-oxo-1-(3-trifluoromethyl-phenyl)-1,2,3,4-tetrahydro-pyrimidin-4-yl]-5-cyano-benzamide]
< 1	CNC(=O)c1cc(C#N)ccc1C1C(C(C)=O)=C(C)N(c2cccc(C(F)(F)F)c2)C(=O)N1C (stereo not shown) [Example 1.1]
< 1	CC(=O)C1=C(C)N(c2cccc(C(F)(F)F)c2)C(=O)N(C)C1c1ccc(C#N)cc1C(=O)N(C)C (stereo not shown) [Example 1.2]
< 1	CCNC(=O)c1cc(C#N)ccc1C1C(C(C)=O)=C(C)N(c2cccc(C(F)(F)F)c2)C(=O)N1C (stereo not shown) [Example 1.4]
< 1	C#CCNC(=O)c1cc(C#N)ccc1C1C(C(C)=O)=C(C)N(c2cccc(C(F)(F)F)c2)C(=O)N1C (stereo not shown) [Example 1.5]
< 1	CC(=O)C1=C(C)N(c2cccc(C(F)(F)F)c2)C(=O)N(C)C1c1ccc(C#N)cc1C(=O)N1CCC1 (stereo not shown) [Example 1.7]
< 1	CC(=O)C1=C(C)N(c2cccc(C(F)(F)F)c2)C(=O)N(C)C1c1ccc(C#N)cc1C(=O)NCCO (stereo not shown) [Example 1.9]
< 1	CC(=O)C1=C(C)N(c2cccc(C(F)(F)F)c2)C(=O)N(C)C1c1ccc(C#N)cc1C(=O)N1CCCC1 (stereo not shown) [Example 1.11]
< 1	CC(=O)C1=C(C)N(c2cccc(C(F)(F)F)c2)C(=O)N(C)C1c1ccc(C#N)cc1C(=O)N1CC(O)C1 (stereo not shown) [Example 1.12]
< 1	CC(=O)C1=C(C)N(c2cccc(C(F)(F)F)c2)C(=O)N(C)C1c1ccc(C#N)cc1C(=O)NC1COC1 (stereo not shown) [Example 1.13]
< 1	CC(=O)C1=C(C)N(c2cccc(C(F)(F)F)c2)C(=O)N(C)C1c1ccc(C#N)cc1C(=O)N(C)CCO (stereo not shown) [Example 1.14]
< 1	COCCNC(=O)c1cc(C#N)ccc1C1C(C(C)=O)=C(C)N(c2cccc(C(F)(F)F)c2)C(=O)N1C (stereo not shown) [Example 1.15]
< 1	CC(=O)C1=C(C)N(c2cccc(C(F)(F)F)c2)C(=O)N(C)C1c1ccc(C#N)cc1C(=O)NCCCO (stereo not shown) [Example 1.16]
< 1	CC(=O)C1=C(C)N(c2cccc(C(F)(F)F)c2)C(=O)N(C)C1c1ccc(C#N)cc1C(=O)NCC(F)F (stereo not shown) [Example 1.17]
< 1	CC(=O)C1=C(C)N(c2cccc(C(F)(F)F)c2)C(=O)N(C)C1c1ccc(C#N)cc1C(=O)NC1CCOC1 (stereo not shown) [Example 1.19]
< 1	COCCCNC(=O)c1cc(C#N)ccc1C1C(C(C)=O)=C(C)N(c2cccc(C(F)(F)F)c2)C(=O)N1C (stereo not shown) [Example 1.20]
< 1	COCCN(C)C(=O)c1cc(C#N)ccc1C1C(C(C)=O)=C(C)N(c2cccc(C(F)(F)F)c2)C(=O)N1C (stereo not shown) [Example 1.21]
< 1	CC(=O)C1=C(C)N(c2cccc(C(F)(F)F)c2)C(=O)N(C)C1c1ccc(C#N)cc1C(=O)NCC(F)(F)F (stereo not shown) [Example 1.23]
< 1	CC(=O)C1=C(C)N(c2cccc(C(F)(F)F)c2)C(=O)N(C)C1c1ccc(C#N)cc1C(=O)NC1CCOCC1 (stereo not shown) [Example 1.24]
< 1	COCCCN(C)C(=O)c1cc(C#N)ccc1C1C(C(C)=O)=C(C)N(c2cccc(C(F)(F)F)c2)C(=O)N1C (stereo not shown) [Example 1.27]
< 1	CC(=O)C1=C(C)N(c2cccc(C(F)(F)F)c2)C(=O)N(C)C1c1ccc(C#N)cc1C(=O)NC1CCN(C)CC1 (stereo not shown) [Example 1.28]
< 1	CC(=O)C1=C(C)N(c2cccc(C(F)(F)F)c2)C(=O)N(C)C1c1ccc(C#N)cc1C(=O)NCCS(C)(=O)=O (stereo not shown) [Example 1.29]
< 1	CC(=O)C1=C(C)N(c2cccc(C(F)(F)F)c2)C(=O)N(C)C1c1ccc(C#N)cc1C(=O)N(C)Cc1cnn(C)c1 (stereo not shown) [Example 1.30]
< 1	CC(=O)C1=C(C)N(c2cccc(C(F)(F)F)c2)C(=O)N(C)C1c1ccc(C#N)cc1C(=O)NC1CCS(=O)(=O)C1 (stereo not shown) [Example 1.31]
< 1	CC(=O)C1=C(C)N(c2cccc(C(F)(F)F)c2)C(=O)N(C)C1c1ccc(C#N)cc1C(=O)NC1(C#N)CC1 (stereo not shown) [Example 1.32]
< 1	CC(=O)C1=C(C)N(c2cccc(C(F)(F)F)c2)C(=O)N(C)C1c1ccc(C#N)cc1C(=O)NCc1ccoc1 (stereo not shown) [Example 1.34]
< 1	CC(=O)C1=C(C)N(c2cccc(C(F)(F)F)c2)C(=O)N(C)C1c1ccc(C#N)cc1C(=O)NCc1ccco1 (stereo not shown) [Example 1.35]
